Experimental data taken from patent US20260137682A1, “METHOD FOR TREATING PNEUMOCONIOSIS” (Beijing Tide Pharmaceuticals Co., Ltd., priority 2022, published 2026).

Tests used:
Assay type in all cases: in vivo
[1] = system: silicosis model mice; test: Pulmonary function indices in SiO2-induced silicosis model mice; settings: oral, 28 days, 2 h after final administration, vs model group
Procedure: (§1) After acclimatization, 6-8-week-old male C57BL/6J mice were intratracheally instilled 40 μL of SiO2 suspension (600 mg/kg) on Day 1 (D1) to establish the silicosis model. On the same day (D1), the animals were randomly divided into 3 groups based on body weight and administered either the vehicle (model group) or Compound 007 (100 mg/kg or 150 mg/kg, once daily) via oral gavage for 28 consecutive days. A normal control group was also established, intratracheally instilled 40 μL of saline on D1 and orally administered sterile water.
Two hours after the final administration, mouse pulmonary function indices were measured.

[2] = system: TGF-β; test: TGF-β detection in BALF of silicosis model mice; settings: oral, 28 days, vs model group
Procedure: as §1
After the administration was completed, the animals were euthanized, and bronchoalveolar lavage fluid (BALF) was collected from randomly selected animals in each group for TGF-β detection.

[3] = system: silicosis model mice; test: Silicotic nodule scoring (Masson's Trichrome staining, King's five-point scale) in lung of silicosis model mice; settings: 28 days; for silica-induced nodule formation and collagen fiber deposition: oral, Masson's Trichrome staining; for Silicotic Nodule Score (Mean ± SEM): oral gavage, score 0 to 5, model group 1.08 ± 0.27
Procedure: as §1
Lung tissues from all mice were collected, sectioned, and subjected to Masson's Trichrome staining and H&E staining for silicotic nodule scoring and inflammation scoring. Silicotic nodule scoring was performed using the King's five-point scale [Zhujie Cao, et al., Acta Pharmacologica Sinica, 2021], where the severity of silicotic nodules in lung tissue was scored from 0 to 5, with higher scores indicating more severe nodulation. H&E pathological scoring followed Szapiel's inflammation scoring criteria, where the degree of inflammatory cell infiltration in lung tissue was scored from 0 to 3, with higher scores indicating greater inflammation in the lung tissue (0: no inflammation or alveolitis: 1: mild, mononuclear cell infiltration with thickened alveolar septa, localized involvement, pleural lesions involving less than 20% of the lung, and well-preserved alveolar structure; 2: moderate, more extensive alveolitis involving 20%-50% of the lung, primarily pleural lesions; 3: severe, diffuse alveolitis involving over 50% of the lung, occasionally with mononuclear cell infiltration in the alveoli and interstitium and/or some hemorrhagic areas within the alveoli).

[4] = system: silicosis model mice; test: Inflammation scoring (H&E staining, Szapiel's criteria) in lung tissue of silicosis model mice; settings: oral gavage, 28 days, score 0 to 3, model group 2.22 ± 0.28
Procedure: as §1
Lung tissues from all mice were collected, sectioned, and subjected to Masson's Trichrome staining and H&E staining for silicotic nodule scoring and inflammation scoring. Silicotic nodule scoring was performed using the King's five-point scale [Zhujie Cao, et al., Acta Pharmacologica Sinica, 2021], where the severity of silicotic nodules in lung tissue was scored from 0 to 5, with higher scores indicating more severe nodulation. […]

[5] = system: silicosis model mice; test: Mortality during 28-day dosing in silicosis model mice; settings: 100 mg/kg or 150 mg/kg once daily, oral gavage, 28 consecutive days
Procedure: as §1

Cn1c(C(=O)N2CC(F)(F)C2)cc2ccc(-c3nccc(Nc4ccc(-c5cn[nH]c5)cc4)n3)cc21 [Compound 007]
inspiratory capacity ([1]; 100 mg/kg daily, p<0.05): significantly increased | respiratory system elastance ([1]; 100 mg/kg daily, p<0.05): decreased | respiratory system resistance ([1]; 100 mg/kg daily, p<0.05): reduced | inspiratory capacity ([1]; 150 mg/kg daily, p<0.01): significantly increased | respiratory system elastance ([1]; 150 mg/kg daily, p<0.05): decreased | respiratory system resistance ([1]; 150 mg/kg daily, p<0.05): reduced | TGF-β levels in BALF ([2]; 100 mg/kg daily, p<0.001): significantly reduced | TGF-β levels in BALF ([2]; 150 mg/kg daily, p<0.0001): significantly reduced | silica-induced nodule formation and collagen fiber deposition ([3]; 100 mg/kg daily): reduced | Silicotic Nodule Score (Mean ± SEM) ([3]; 100 mg/kg once daily): 0.32 ± 0.06 | silica-induced nodule formation and collagen fiber deposition ([3]; 150 mg/kg daily): reduced | Silicotic Nodule Score (Mean ± SEM) ([3]; 150 mg/kg once daily): 0.35 ± 0.09 | Inflammation Score (Mean ± SEM) ([4]; 100 mg/kg once daily): 1.22 ± 0.15 | Inflammation Score (Mean ± SEM) ([4]; 150 mg/kg once daily): 1.22 ± 0.22 | mortality during the dosing period [5]: No mortality was observed
